The nature of assay [1]: viability loss in A549 lung cells – cell-based, 24 h, CellTiter-Glo luminescence, cherry-picks, cytotoxicity control, dose response (AID 1053115). It counts as functional. The following applies: A549, 24 h.
Assay [2] is described as follows: IC50 of Artemis nuclease activity blockers – biochemical, fluorescence intensity, dose response (AID 720701).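 Note: Artemis endonuclease enzyme.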 It counts as functional.
A short description of assay [3]: Trypanosoma cruzi growth suppression in host cells – NIH3T3 host cells, beta-gal luminescence, confirmation (AID 2044).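 Note: intracellular parasites grown in NIH/3T3 mouse fibroblasts as host cells; luminescent beta-galactosidase reporter signal from transgenic T. cruzi replicating inside host cells; inhibitors lower the luminescence signal.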 It counts as functional, cell-based.
A short description of assay [4]: NIH3T3 cell viability loss – ATP luminescence, mouse fibroblasts, counter-screen, dose response (AID 2010).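 Note: cells exposed to compound for about 90 hours before reading.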 It counts as functional, cell-based. (Counterscreens check selectivity or assay interference.)
Assay [5] can be described thus: viability loss in THP-1 monocytes – THP-1 cells, cytotoxicity control for Vif-APOBEC3G degradation inhibitor project, dose response (AID 1117359). Particulars: THP-1. It counts as functional.
Assay [6] can be described thus: Dd2 parasite growth inhibition in erythrocytes – SYBR Green, dry powder samples, set 9, dose response (AID 1159568). It counts as functional, cell-based.
The nature of assay [7]: growth inhibition of yeast DHODH-expressing 3D7 parasites – SYBR Green, dry powder samples, dose response (AID 1159570).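 Note: parasite growth measured after 72 hours of compound exposure.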 It counts as functional, cell-based.
Assay [8] can be described thus: toxicity to human hepatoma HepG2 cells – cell-based, cherry-picked samples, cytotoxicity control, dose response (AID 1159577). It counts as functional.
Assay [9] is described as follows: Dd2 malaria parasite growth inhibition potency – SYBR Green, dry powder samples, dose response (AID 1159566).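 Note: potency for growth inhibition with lower SYBR green DNA signal.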 It counts as functional, cell-based.
Assay [10] can be described thus: toxicity to human HepG2 hepatoma cells – cell-based, plate reader, dry powder samples, cytotoxicity control, dose response (AID 1159569).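 Note: inhibitor potency with signal falling toward the positive control level.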 It counts as functional.
Assay [11] is described as follows: P. falciparum Dd2 growth inhibitors, dose response, SYBR Green, cherry-picked samples (AID 1159567). It counts as functional, cell-based.
Assay [12] in a line: growth inhibition of PfATP4-mutant resistant parasites – NITD609-resistant line, SYBR Green, dry powder, dose response (AID 1159571).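 Note: parasites synchronized at ring stage by sorbitol before testing.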 It counts as functional, cell-based.
The nature of assay [13]: Potency on glucagon-like peptide 1 release, dose-response in NCI-H716 cell line, half maximal inhibitory concentration (AID 1117344). It counts as functional, cell-based.
Assay [14] can be described thus: glucagon-like peptide-1 release potency in STC-1, concentration-response, half-maximal inhibitory concentration in the STC-1 line (AID 1117345). It counts as functional, cell-based.
Assay [15] is described as follows: cytotoxicity toward HCT116 cells – cell-based, CellTiter-Glo luminescence, IC50, dose response (AID 1117332). It counts as functional. The following applies: HCT-116. In general terms: In ATP-based viability assays light output follows the ATP content of the culture.
Assay [16] is described as follows: HCT116 cell viability decrease, GSK3B pretreatment – CellTiter-Glo, IC50, dose response (AID 1117339). The following applies: HCT-116. It counts as functional.
Assay [17] in a line: CellTiter-Glo luminescence survival assay, SW480 colon tumor line, concentration-response curve, half-maximal inhibitory concentration (AID 1117338). It counts as functional.
The nature of assay [18]: Reduced DLD-1 viability, concentration-response, CellTiter-Glo luminescence (AID 1117352). It counts as functional.
Assay [19] can be described thus: SNU-C1 cell viability reduction, dose response, CellTiter-Glo luminescence (AID 1117323). It counts as functional, cell-based.
A short description of assay [20]: cytotoxicity toward Colo320 cells – cell-based, CellTiter-Glo luminescence, IC50, dose response (AID 1117334). It counts as functional. The following applies: COLO 320.
A short description of assay [21]: RKO cell viability reduction, dose response, CellTiter-Glo luminescence (AID 1117322). It counts as functional.
The nature of assay [22]: cytotoxicity toward HT-29 cells – cell-based, CellTiter-Glo luminescence, IC50, dose response (AID 1117330). It counts as functional.

Structures can show the parent of a compound that is named as a salt. Active and inactive are the calls of the source.

Usually AC50 stands for the concentration at which the activity in the assay is half-maximal. Take `C[C@@H](O)C#Cc1ccc2c(c1)O[C@@H](CN(C)Cc1ccccc1)[C@@H](C)CN([C@@H](C)CO)S2(=O)=O`: the AC50 in assay [1] was > 60 µM (inactive).

Take `N#Cc1ccc(-c2ccc3c(c2)[C@H]2[C@H](CCN2C(=O)C2CCCCC2)[C@@H](CO)N3)cc1`: the half-maximal activity concentration (AC50) in assay [1] is 48.7 µM (active).

As usually defined, the IC50 is the concentration that gives 50% inhibition. In the case of `O=C(NC(C(=O)N/N=C/c1c2ccccc2cc2ccccc12)c1nnc(O)c2ccccc12)c1ccccc1` (centres undefined), the IC50 in assay [2] was > 20 µM (inactive).

For orientation: EC50 means the concentration at which the effect is half-maximal. The term CC50 denotes the concentration giving 50% cytotoxicity. As for `COc1cccc(/C=N/NC(N)=S)c1OCc1ccccc1Cl`, the EC50 in assay [3] was 1.18 µM (active); in [4], > 30 µM (not active). Also, the 50% cytotoxic concentration (CC50) in assay [5] is > 40 µM (active).

As to `O=C(NCC[C@H]1CC[C@H](NC(=O)c2ccccc2F)[C@@H](CO)O1)c1cnccn1`, the concentration at half-maximal activity (AC50) in assay [6] was 11 µM (active).

With `COc1ccc(C#Cc2ccc([C@@H]3[C@H](CO)N4CCCCN(C(=O)Nc5ccccc5F)C[C@@H]34)cc2)cc1`, the half-maximal activity concentration (AC50) in assay [7] was 1.02 µM (active); in [8], 9.73 µM (active); in assay [9], 0.898 µM (active); in assay [10], 8.16 µM (active); in assay [11] it was 1.42 µM (active); in assay [12], 0.771 µM (active).

As for `COc1ccc(C#Cc2ccc([C@@H]3[C@@H](CO)N4CCCCN(C(=O)Nc5cccc(F)c5)C[C@H]34)cc2)cc1`, the concentration at half-maximal activity (AC50) was 0.738 µM (active) in [7]; 1.35 µM (active) in assay [6]; 0.083 µM (active) in assay [9]; 7.51 µM (active) in assay [10]; 1.66 µM (active) in assay [11]; 0.698 µM (active) in assay [12].

Take `Cc1nnc2n1-c1sc(CCc3ccc(CC(C)C)cc3)cc1C(c1ccccc1Cl)=NC2C` (centres undefined) [ISRAPAFANT]: the IC50 in assay [13] is 24.7 µM (inactive); in assay [14], > 40 µM (inactive).

As to `Cc1cccc(Nc2cc(Cl)nc(SCC(=O)O)n2)c1C` [PIRINIXIC ACID], the IC50 in [15], in assay [16], in assay [17], in [18], in assay [19] and in assay [20] was > 20 µM (inactive) in each case. For the same compound, the IC50 in [21] and in assay [22] was > 20 µM (inactive) in each case.

Take `C[C@@H]1CN(CCCn2c3ccccc3c3ccccc32)C[C@H](C)N1` [RIMCAZOLE HYDROCHLORIDE]: the IC50 in assay [15] is 10.5 µM (inactive); in assay [16], 3.85 µM (active); in assay [17], 2.35 µM (active); in assay [18], 9.8 µM (inactive); in assay [19] it was 6.02 µM (inactive); in assay [13], 6.37 µM (inactive). Moreover, the IC50 was 15.9 µM (inactive) in [20], 2.18 µM (active) in assay [21], > 40 µM (inactive) in assay [14] and 4.02 µM (active) in [22].

Values taken from ChEMBL document CHEMBL1201862, “PubChem BioAssay data set” (2004).
